Measurements as given in ChEMBL document CHEMBL1201862, “PubChem BioAssay data set” (2004).
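Exposure lasted 48 hours, with cells grown in 96-well plates and compounds tested at five concentrations. The concentration for 50% growth inhibition is given as GI50.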 Activity calls are given as the source filed them. No stated cut-off is given here; in the data, active = GI50 up to about 1.1 µM and inactive = higher.

Key:
Experiment in all cases: growth of human tumour cells (NCI), 48 h
CAKI-1 = tested on: CAKI-1
SK-MEL-5 = tested on: SK-MEL-5
DMS-114 = tested on: DMS-114
SK-MEL-28 = tested on: SK-MEL-28
HOP-92 = tested on: HOP-92
NCI-H23 = tested on: NCI-H23
HOP-62 = tested on: HOP-62
786-0 = tested on: 786-0
RPMI-8226 = tested on: RPMI-8226
IGROV-1 = tested on: IGROV-1
OVCAR-4 = tested on: OVCAR-4
SF-268 = tested on: SF-268
OVCAR-3 = tested on: OVCAR-3
HL-60 = tested on: HL-60
ACHN = tested on: ACHN
UACC-257 = tested on: UACC-257
RXF 393 = tested on: RXF 393

Measured: GI50

COc1ccc(/C=C2/C(=O)N(C(=O)c3ccc(Cl)cc3)N=C2C)cc1OC
inactive: CAKI-1 > 100 µM | SK-MEL-5 > 100 µM | DMS-114 > 100 µM | SK-MEL-28 > 100 µM | HOP-92 > 100 µM | NCI-H23 > 100 µM | HOP-62 > 100 µM | 786-0 > 100 µM | RPMI-8226 > 100 µM | IGROV-1 > 100 µM | OVCAR-4 > 100 µM | SF-268 > 100 µM | OVCAR-3 > 100 µM | HL-60 > 100 µM | ACHN > 100 µM | UACC-257 > 100 µM

COc1ccccc1/C=N/N=C(\N)NO
inactive: CAKI-1 7.28 µM | SK-MEL-5 2.77 µM | DMS-114 5.78 µM | SK-MEL-28 21.3 µM | RXF 393 28 µM | HOP-92 11 µM | NCI-H23 45.2 µM | HOP-62 6 µM | 786-0 23 µM | RPMI-8226 29.2 µM | IGROV-1 96.4 µM | OVCAR-4 38.4 µM | SF-268 20.5 µM | OVCAR-3 45.1 µM | ACHN 8.22 µM | UACC-257 29.1 µM

O=C1Nc2ccccc2C1(O)C/C(=N/O)c1ccc2ccccc2c1 (configuration not stated)
inactive: DMS-114 64.6 µM | SK-MEL-28 > 100 µM | RXF 393 58.9 µM | NCI-H23 71.9 µM | HOP-62 > 100 µM | 786-0 > 100 µM | RPMI-8226 87.1 µM | OVCAR-4 > 100 µM | SF-268 > 100 µM | OVCAR-3 > 100 µM | HL-60 41.8 µM | ACHN > 100 µM | UACC-257 > 100 µM

CN(c1ccccc1)C(c1ccccc1)C(O)c1ccccc1 (configuration not stated)
inactive: CAKI-1 20.5 µM | SK-MEL-5 19.4 µM | DMS-114 20.9 µM | SK-MEL-28 20.5 µM | HOP-92 29.9 µM | NCI-H23 22.4 µM | HOP-62 20.4 µM | 786-0 18.2 µM | RPMI-8226 20.8 µM | IGROV-1 22.2 µM | OVCAR-4 18.1 µM | SF-268 21.4 µM | OVCAR-3 17.3 µM | HL-60 15.5 µM | ACHN 22.6 µM | UACC-257 19.3 µM

Cc1cc(NC(=O)C2C3C=CC(O3)C2C(=O)O)no1 (configuration not stated)
inactive: SK-MEL-5 > 100 µM | DMS-114 15.7 µM | SK-MEL-28 97.7 µM | RXF 393 16.4 µM | HOP-92 > 100 µM | NCI-H23 > 100 µM | HOP-62 > 100 µM | 786-0 17.4 µM | RPMI-8226 16.6 µM | IGROV-1 > 100 µM | OVCAR-4 88.1 µM | SF-268 24.3 µM | OVCAR-3 > 100 µM | HL-60 23.5 µM | ACHN 39.7 µM | UACC-257 35 µM

CCc1cc(CCC(=O)Nc2ccccc2[N+](=O)[O-])nc(S)n1
inactive: DMS-114 > 100 µM | SK-MEL-28 > 100 µM | RXF 393 > 100 µM | HOP-92 > 100 µM | NCI-H23 > 100 µM | HOP-62 > 100 µM | 786-0 > 100 µM | IGROV-1 > 100 µM | SF-268 > 100 µM | OVCAR-3 > 100 µM | HL-60 > 100 µM | ACHN > 100 µM | UACC-257 > 100 µM

C=CCC1(C(=O)OC(C)(C)C)C(OC)=C(C(=O)OC(C)(C)C)C2C1C(C(=O)OC(C)(C)C)=C(OC)C2(CC=C)C(=O)OC(C)(C)C (configuration not stated)
inactive: DMS-114 > 100 µM | SK-MEL-28 > 100 µM | RXF 393 > 100 µM | HOP-92 > 100 µM | NCI-H23 > 100 µM | 786-0 > 100 µM | RPMI-8226 > 100 µM | IGROV-1 > 100 µM | SF-268 > 100 µM | OVCAR-3 > 100 µM | HL-60 > 100 µM | ACHN > 100 µM | UACC-257 > 100 µM

CC(O)CN1C(=O)NC(Cc2ccccc2)C1=O (configuration not stated)
inactive: CAKI-1 > 100 µM | DMS-114 > 100 µM | SK-MEL-28 > 100 µM | RXF 393 > 100 µM | HOP-92 > 100 µM | NCI-H23 > 100 µM | HOP-62 29.5 µM | 786-0 > 100 µM | SF-268 > 100 µM | HL-60 > 100 µM | ACHN > 100 µM | UACC-257 > 100 µM

Cc1cc2c(c(C(N)=O)c1C)-c1ccccc1C2=O
inactive: DMS-114 > 100 µM | SK-MEL-28 > 100 µM | RXF 393 > 100 µM | HOP-92 > 100 µM | NCI-H23 > 100 µM | HOP-62 > 100 µM | 786-0 > 100 µM | RPMI-8226 > 100 µM | IGROV-1 > 100 µM | OVCAR-4 > 100 µM | SF-268 > 100 µM | OVCAR-3 > 100 µM | HL-60 > 100 µM | ACHN > 100 µM | UACC-257 > 100 µM

COc1ccccc1N1C(=O)/C(=C/c2ccc(N(CCC#N)CCC#N)cc2C)N=C1c1cc([N+](=O)[O-])ccc1Cl
inactive: CAKI-1 > 100 µM | SK-MEL-5 > 100 µM | DMS-114 > 100 µM | SK-MEL-28 > 100 µM | NCI-H23 > 100 µM | HOP-62 > 100 µM | 786-0 > 100 µM | RPMI-8226 > 100 µM | IGROV-1 > 100 µM | OVCAR-4 20.6 µM | SF-268 > 100 µM | OVCAR-3 > 100 µM | HL-60 > 100 µM | ACHN > 100 µM | UACC-257 > 100 µM

CC(=O)Nc1cc(N(CCOS(C)(=O)=O)CCOS(C)(=O)=O)ccc1N=O
inactive: CAKI-1 > 100 µM | SK-MEL-5 > 100 µM | DMS-114 > 100 µM | SK-MEL-28 > 100 µM | HOP-92 > 100 µM | NCI-H23 > 100 µM | HOP-62 > 100 µM | 786-0 > 100 µM | RPMI-8226 > 100 µM | IGROV-1 > 100 µM | OVCAR-4 > 100 µM | SF-268 > 100 µM | OVCAR-3 > 100 µM | HL-60 > 100 µM | ACHN > 100 µM | UACC-257 > 100 µM

O=C(CCn1[nH]c(=O)c(Cl)c(Cl)c1=O)NO
inactive: CAKI-1 > 100 µM | SK-MEL-5 > 100 µM | DMS-114 > 100 µM | SK-MEL-28 > 100 µM | RXF 393 > 100 µM | NCI-H23 > 100 µM | HOP-62 > 100 µM | 786-0 > 100 µM | RPMI-8226 > 100 µM | IGROV-1 > 100 µM | OVCAR-4 > 100 µM | SF-268 > 100 µM | OVCAR-3 > 100 µM | HL-60 > 100 µM | ACHN > 100 µM | UACC-257 > 100 µM

CCC(Oc1ccc(OC)c2ccccc(=O)c12)C(=O)O (configuration not stated)
inactive: SK-MEL-5 > 100 µM | DMS-114 > 100 µM | SK-MEL-28 > 100 µM | RXF 393 > 100 µM | NCI-H23 > 100 µM | HOP-62 > 100 µM | 786-0 > 100 µM | RPMI-8226 > 100 µM | IGROV-1 > 100 µM | OVCAR-4 > 100 µM | SF-268 > 100 µM | OVCAR-3 > 100 µM | HL-60 > 100 µM | ACHN > 100 µM | UACC-257 > 100 µM
